Assay results taken from US20150105252A1, “SUBSTITUTED PYRAZOLES AS HERBICIDES” (E I DU PONT DE NEMOURS AND COMPANY, priority 2013, published 2015).

Legend:
radish, wild = test: Test D preemergence; type: in vivo, Raphanus raphanistrum; details: Preemergence, scale 0 to 100
Procedure, shortened: (§1)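 Pre: sown in silt loam, sprayed at once. Post: grown in peat-moss/vermiculite mix, sprayed at 1–4 leaves (2–18 cm). Formulation: non-phytotoxic solvent + surfactant. Read-out: visual 0–100 vs controls, 14–21 d.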

speedwell = test: Test D preemergence; type: in vivo, Veronica persica; details: Preemergence, scale 0 to 100
Procedure, shortened: as §1

chamomile = test: Test D preemergence; type: in vivo, Matricaria inodora; details: Preemergence, scale 0 to 100
Procedure, shortened: as §1

bluegrass [1] = test: Test D postemergence; type: in vivo, Poa annua; details: scale 0 to 100
Procedure, shortened: as §1

kochia [2] = test: Test D preemergence; type: in vivo, Kochia scoparia; details: Preemergence, scale 0 to 100
Procedure, shortened: as §1

windgrass = test: Test D postemergence; type: in vivo, Apera spica-venti; details: scale 0 to 100
Procedure, shortened: as §1

deadnettle = test: Test D postemergence; type: in vivo, Lamium amplexicaule; details: scale 0 to 100
Procedure, shortened: as §1

field poppy = test: Test D postemergence; type: in vivo, Papaver rhoeas; details: scale 0 to 100
Procedure, shortened: as §1

galium = test: Test D postemergence; type: in vivo, Galium aparine; details: scale 0 to 100
Procedure, shortened: as §1

bromegrass, downy [3] = test: Test D preemergence; type: in vivo, Bromus tectorum; details: Preemergence, scale 0 to 100
Procedure, shortened: as §1

field violet [4] = test: Test D postemergence; type: in vivo, Viola arvensis; details: scale 0 to 100
Procedure, shortened: as §1

chickweed = test: Test D postemergence; type: in vivo, Stellaria media; details: scale 0 to 100
Procedure, shortened: as §1

foxtail, green = test: Test D preemergence; type: in vivo, Setaria viridis; details: Preemergence, scale 0 to 100
Procedure, shortened: as §1

kochia [5] = test: Test D postemergence; type: in vivo, Kochia scoparia; details: scale 0 to 100
Procedure, shortened: as §1

mustard, wild = test: Test D preemergence; type: in vivo, Sinapis arvensis; details: Preemergence, scale 0 to 100
Procedure, shortened: as §1

bromegrass, downy [6] = test: Test D postemergence; type: in vivo, Bromus tectorum; details: scale 0 to 100
Procedure, shortened: as §1

buckwheat, wild = test: Test D postemergence; type: in vivo, Polygonum convolvulus; details: scale 0 to 100
Procedure, shortened: as §1

canarygrass = test: Test D postemergence; type: in vivo, Phalaris minor; details: scale 0 to 100
Procedure, shortened: as §1

bluegrass [7] = test: Test D preemergence; type: in vivo, Poa annua; details: Preemergence, scale 0 to 100
Procedure, shortened: as §1

field violet [8] = test: Test D preemergence; type: in vivo, Viola arvensis; details: Preemergence, scale 0 to 100
Procedure, shortened: as §1

CCCc1cc(C(=O)NC(C)C)nn1Cc1cc(C(F)(F)F)nn1C [Compound 201]
Plant response rating, Radish, Wild (radish, wild; 62 g ai/ha): 100
Plant response rating, Radish, Wild (radish, wild; 125 g ai/ha): 100
Plant response rating, Radish, Wild (radish, wild; 250 g ai/ha): 100
Plant response rating, Speedwell (speedwell; 62 g ai/ha): 100
Plant response rating, Speedwell (speedwell; 125 g ai/ha): 100
Plant response rating, Speedwell (speedwell; 250 g ai/ha): 100
Plant response rating, Chamomile (chamomile; 31 g ai/ha): 50
Plant response rating, Chamomile (chamomile; 62 g ai/ha): 100
Plant response rating, Chamomile (chamomile; 125 g ai/ha): 100
Plant response rating, Chamomile (chamomile; 250 g ai/ha): 100
Bluegrass plant response rating (bluegrass [1]; Postemergence, 31 g ai/ha): 20
Bluegrass plant response rating (bluegrass [1]; Postemergence, 125 g ai/ha): 35
Bluegrass plant response rating (bluegrass [1]; Postemergence, 250 g ai/ha): 40
Bluegrass plant response rating (bluegrass [1]; postemergence, 62 g ai/ha): 20
Plant response rating, Kochia (kochia [2]; 62 g ai/ha): 100
Plant response rating, Kochia (kochia [2]; 125 g ai/ha): 100
Plant response rating, Kochia (kochia [2]; 250 g ai/ha): 100
Windgrass plant response rating (windgrass; Postemergence, 31 g ai/ha): 20
Windgrass plant response rating (windgrass; Postemergence, 125 g ai/ha): 30
Windgrass plant response rating (windgrass; Postemergence, 250 g ai/ha): 45
Windgrass plant response rating (windgrass; postemergence, 62 g ai/ha): 20
Deadnettle plant response rating (deadnettle; Postemergence, 31 g ai/ha): 55
Deadnettle plant response rating (deadnettle; Postemergence, 125 g ai/ha): 60
Deadnettle plant response rating (deadnettle; Postemergence, 250 g ai/ha): 65
Deadnettle plant response rating (deadnettle; postemergence, 62 g ai/ha): 55
Field Poppy plant response rating (field poppy; Postemergence, 31 g ai/ha): 55
Field Poppy plant response rating (field poppy; Postemergence, 125 g ai/ha): 60
Field Poppy plant response rating (field poppy; Postemergence, 250 g ai/ha): 65
Field Poppy plant response rating (field poppy; postemergence, 62 g ai/ha): 55
Galium plant response rating (galium; Postemergence, 31 g ai/ha): 70
Galium plant response rating (galium; Postemergence, 125 g ai/ha): 70
Galium plant response rating (galium; Postemergence, 250 g ai/ha): 85
Galium plant response rating (galium; postemergence, 62 g ai/ha): 70
Plant response rating, Bromegrass, Downy (bromegrass, downy [3]; 31 g ai/ha): 20
Plant response rating, Bromegrass, Downy (bromegrass, downy [3]; 62 g ai/ha): 60
Plant response rating, Bromegrass, Downy (bromegrass, downy [3]; 125 g ai/ha): 70
Plant response rating, Bromegrass, Downy (bromegrass, downy [3]; 250 g ai/ha): 100
Field Violet plant response rating (field violet [4]; Postemergence, 31 g ai/ha): 55
Field Violet plant response rating (field violet [4]; Postemergence, 125 g ai/ha): 65
Field Violet plant response rating (field violet [4]; Postemergence, 250 g ai/ha): 75
Field Violet plant response rating (field violet [4]; postemergence, 62 g ai/ha): 55
Chickweed plant response rating (chickweed; Postemergence, 31 g ai/ha): 55
Chickweed plant response rating (chickweed; Postemergence, 125 g ai/ha): 70
Chickweed plant response rating (chickweed; Postemergence, 250 g ai/ha): 75
Chickweed plant response rating (chickweed; postemergence, 62 g ai/ha): 55
Plant response rating, Foxtail, Green (foxtail, green; 62 g ai/ha): 100
Plant response rating, Foxtail, Green (foxtail, green; 125 g ai/ha): 100
Plant response rating, Foxtail, Green (foxtail, green; 250 g ai/ha): 100
Kochia plant response rating (kochia [5]; Postemergence, 31 g ai/ha): 75
Kochia plant response rating (kochia [5]; Postemergence, 125 g ai/ha): 85
Kochia plant response rating (kochia [5]; Postemergence, 250 g ai/ha): 85
Kochia plant response rating (kochia [5]; postemergence, 62 g ai/ha): 75
Plant response rating, Mustard, Wild (mustard, wild; 62 g ai/ha): 100
Plant response rating, Mustard, Wild (mustard, wild; 125 g ai/ha): 100
Plant response rating, Mustard, Wild (mustard, wild; 250 g ai/ha): 100
Bromegrass, Downy plant response rating (bromegrass, downy [6]; Postemergence, 31 g ai/ha): 30
Bromegrass, Downy plant response rating (bromegrass, downy [6]; Postemergence, 125 g ai/ha): 35
Bromegrass, Downy plant response rating (bromegrass, downy [6]; Postemergence, 250 g ai/ha): 50
Bromegrass, Downy plant response rating (bromegrass, downy [6]; postemergence, 62 g ai/ha): 30
Buckwheat, Wild plant response rating (buckwheat, wild; Postemergence, 31 g ai/ha): 50
Buckwheat, Wild plant response rating (buckwheat, wild; Postemergence, 125 g ai/ha): 65
Buckwheat, Wild plant response rating (buckwheat, wild; Postemergence, 250 g ai/ha): 70
Buckwheat, Wild plant response rating (buckwheat, wild; postemergence, 62 g ai/ha): 50
Canarygrass plant response rating (canarygrass; Postemergence, 31 g ai/ha): 15
Canarygrass plant response rating (canarygrass; Postemergence, 125 g ai/ha): 20
Canarygrass plant response rating (canarygrass; Postemergence, 250 g ai/ha): 60
Canarygrass plant response rating (canarygrass; postemergence, 62 g ai/ha): 15
Plant response rating, Bluegrass (bluegrass [7]; 31 g ai/ha): 20
Plant response rating, Bluegrass (bluegrass [7]; 62 g ai/ha): 50
Plant response rating, Bluegrass (bluegrass [7]; 125 g ai/ha): 80
Plant response rating, Bluegrass (bluegrass [7]; 250 g ai/ha): 95
Plant response rating, Field Violet (field violet [8]; 62 g ai/ha): 100
Plant response rating, Field Violet (field violet [8]; 125 g ai/ha): 100
Plant response rating, Field Violet (field violet [8]; 250 g ai/ha): 100
